In US6528275B1, “Substrates and inhibitors of proteolytic enzymes” (Peptide Therapeutics Limited, priority 1996, dated 2003):
Non-standard residues stand in square brackets, D forms with d. Residues, ends and D or L forms follow the SMILES beside them. *: point of attachment. Tyr(3-NO2) = N[C@@H](Cc1ccc(O)c([N+](=O)[O-])c1)C(=O)O; Benzoyl(2-COOH) = O=C(O)c1ccccc1C(=O)*; Hyp = O=C(O)[C@@H]1C[C@@H](O)CN1; Tic = O=C(O)[C@@H]1Cc2ccccc2CN1; Cha = N[C@@H](CC1CCCCC1)C(=O)O; hLeu = CC(C)CC[C@H](N)C(=O)O; Nle = CCCC[C@H](N)C(=O)O; 2Abz = Nc1ccccc1C(=O)O; Bz = O=C(c1ccccc1)*; Ahx = NCCCCCC(=O)O

Target: T1, Der pI (Dermatophagoides pteronyssinus, UniProt P08176)
T1 construct: tissue SmithKline-Beecham, U.K (crude mite extract); host or cells: crude house dust mite extract
T1 sequence (P08176 99-320): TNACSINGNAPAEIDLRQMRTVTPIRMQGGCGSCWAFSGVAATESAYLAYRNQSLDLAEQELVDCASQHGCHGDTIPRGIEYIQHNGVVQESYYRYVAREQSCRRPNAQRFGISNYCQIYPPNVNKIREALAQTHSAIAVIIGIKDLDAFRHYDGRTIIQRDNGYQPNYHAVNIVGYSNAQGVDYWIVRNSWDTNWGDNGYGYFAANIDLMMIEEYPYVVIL
Test: Der pI substrate assay with FRET peptides (fluorescence, Km, kcat/Km)
Type: biochemical, house dust mite
Parameters: key: NS indicates that the peptide was not hydrolysed by Der pI.; NM indicated that the peptide was a substrate for Der pI, but the Km was not measured.; NM^a indicates that the peptide was a substrate for Der pI, and its cleavage was followed by HPLC-MS showing hydrolysis to occur between-Nle-Ser-
Conditions: purified Der pI; peptides SEQ ID Nos. 1-76
Procedure: Using the general techniques described above, the following compounds were prepared and assayed as potential substrates against Der pI purified as described above.
Each mixture of 20 compounds in the libraries of the apparatus described herein was screened at a concentration of 1.0 μM per compound in an assay against the cysteinyl protease Der pI.
Plate assays were carried out in 96 well plate format, using 0.1 ug of Der pI per 100 μL assay volume in each well and using 20 μM of the substrate. All assays were performed in Assay Buffer (AB; 50 mM potassium phosphate, pH 8.25 containing 1 mM ethylenediaminetetraacetic acid (EDTA) and 1 mM dithiothreitol (DTT). The Der pI enzyme is pre-activated by addition of DTT and this in incubated at room temperature for 5 min. prior to initiation of the assay. As an example for the screening methodology, each well contains a 5 μL of a 20 μM solution of the test compound in DMSO, 10 μL of a 200 μM aqueous solution of the substrate, 2, and 85 μL of Der pI in AB is added to initiate the reaction. Enzyme activity is monitored by fluorescence using 320 nm for excitation and 420 nm for the emission wavelengths using a Labsystems Fluroskan Ascent machine. Kinetic measurements were carried out using a Hitachi F-4500 Fluorescence Spectrophotometer.

Compound	substrate or not substrate for Der pI (symbols in Measured Km)
CCCC[C@H](NC(=O)c1ccccc1N)C(=O)N[C@@H](CO)C(=O)N[C@@H](Cc1ccc(O)c([N+](=O)[O-])c1)C(=O)N[C@@H](CC(=O)O)C(N)=O [Abz-Nle-Ser-Tyr(NO2)-Asp-NH2] (H-[2Abz][Nle]S[Tyr(3-NO2)]D-NH2)	NS
CCCC[C@H](NC(=O)[C@H](C)NC(=O)[C@@H](NC(=O)c1ccccc1C(=O)O)C(C)C)C(=O)N[C@@H](CO)C(=O)N[C@@H](Cc1ccc(O)c([N+](=O)[O-])c1)C(N)=O [Bz(2-carboxy)-Val-Ala-Nle-Ser-Tyr(NO2)-NH2] ({Benzoyl(2-COOH)}-VA[Nle]S[Tyr(3-NO2)]-NH2)	NM^a
CCCC[C@H](NC(=O)[C@H](C)NC(=O)[C@@H](NC(=O)c1ccccc1N)C(C)C)C(=O)N[C@@H](CO)C(=O)N[C@@H](Cc1ccccc1)C(=O)N[C@@H](CC(=O)O)C(N)=O [Abz-Val-Ala-Nle-Ser-Phe-Asp-NH2] (H-[2Abz]VA[Nle]SFD-NH2)	NM
CCCC[C@H](NC(=O)[C@H](C)NC(=O)[C@@H](NC(C)=O)C(C)C)C(=O)N[C@@H](CO)C(=O)N[C@@H](Cc1ccc(O)c([N+](=O)[O-])c1)C(=O)N[C@@H](CC(=O)O)C(N)=O [Ac-Val-Ala-Nle-Ser-Tyr(NO2)-Asp-NH2] (Ac-VA[Nle]S[Tyr(3-NO2)]D-NH2)	NS
CCCC[C@H](NC(=O)[C@H](C)NC(=O)[C@@H](NC(=O)[C@H](Cc1ccc(O)cc1)NC(=O)c1ccccc1N)C(C)C)C(=O)N[C@@H](CO)C(=O)N[C@@H](Cc1ccc(O)c([N+](=O)[O-])c1)C(=O)N[C@@H](CC(=O)O)C(N)=O [Abz-Tyr-Val-Ala-Nle-Ser-Tyr(NO2)-Asp-NH2] (H-[2Abz]YVA[Nle]S[Tyr(3-NO2)]D-NH2)	NM
CCCC[C@H](NC(=O)[C@H](C)NC(=O)[C@@H](N)C(C)C)C(=O)N[C@@H](CO)C(=O)N[C@@H](Cc1ccc(O)c([N+](=O)[O-])c1)C(=O)N[C@@H](CC(=O)O)C(N)=O [H-Val-Ala-Nle-Ser-TyrNO2-Asp-NH2] (H-VA[Nle]S[Tyr(3-NO2)]D-NH2)	NS
n-Bu-Val-Ala-Nle-Ser-Tyr(NO2)-NH2	NM^a
Chex-Val-Ala-Nle-Ser-Tyr(NO2)-NH2	NM^a
CC(C)CC[C@H](NC(=O)[C@@H](C)NC(=O)[C@@H](NC(=O)c1ccccc1N)C(C)C)C(=O)N[C@@H](CO)C(=O)N[C@@H](Cc1ccc(O)c([N+](=O)[O-])c1)C(=O)N[C@@H](CC(=O)O)C(N)=O [Abz-Val-DAla-hLeu-Ser-Tyr(NO2)-Asp-NH2] (H-[2Abz]V[dA][hLeu]S[Tyr(3-NO2)]D-NH2)	NS
CCCC[C@H](NC(=O)[C@H](C)NC(=O)[C@@H](NC(=O)c1ccccc1N)C(C)C)C(=O)N[C@@H](CO)C(N)=O [Abz-Val-Ala-Nle-Ser-NH2] (H-[2Abz]VA[Nle]S-NH2)	NM
Abz-2.Naph-Val-Ala-Nle-Ser-Tyr(NO2)-Asp-NH2	NM
CCCC[C@H](NC(=O)[C@H](C)NC(=O)[C@@H](NC(=O)c1ccccc1N)C(C)C)C(=O)N[C@@H](CO)C(=O)NCCCCCC(=O)N[C@@H](CC(=O)O)C(N)=O [Abz-Val-Ala-Nle-Ser-eAHA-Asp-NH2] (H-[2Abz]VA[Nle]S[Ahx]D-NH2)	NM
CCCC[C@H](NC(=O)[C@H](C)NC(=O)[C@@H](NC(=O)c1ccccc1N)C(C)C)C(=O)N[C@@H](CO)C(=O)N[C@@H](Cc1ccc(O)cc1)C(=O)N[C@@H](CC(=O)O)C(N)=O [Abz-Val-Ala-Nle-Ser-Tyr-Asp-NH2] (H-[2Abz]VA[Nle]SYD-NH2)	NM
CCCC[C@H](NC(=O)[C@H](C)NC(=O)[C@@H](NC(=O)c1ccccc1)C(C)C)C(=O)N[C@@H](CO)C(=O)N[C@@H](Cc1ccc(O)c([N+](=O)[O-])c1)C(N)=O [Bz-Val-Ala-Nle-Ser-Tyr(NO2)-NH2] (Bz-VA[Nle]S[Tyr(3-NO2)]-NH2)	NM^a
CC(C)CC[C@H](NC(=O)[C@@H]1Cc2ccccc2CN1C(=O)[C@@H](NC(=O)c1ccccc1N)C(C)C)C(=O)N[C@@H](CO)C(=O)N[C@@H](Cc1ccc(O)c([N+](=O)[O-])c1)C(=O)N[C@@H](CC(=O)O)C(N)=O [Abz-Val-Tic-hLeu-Ser-Tyr(NO2)-Asp-NH2] (H-[2Abz]V[Tic][hLeu]S[Tyr(3-NO2)]D-NH2)	NS
CC(C)CC[C@H](NC(=O)[C@H](C)NC(=O)[C@H](NC(=O)c1ccccc1N)C(C)C)C(=O)N[C@@H](CO)C(=O)N[C@@H](Cc1ccc(O)c([N+](=O)[O-])c1)C(=O)N[C@@H](CC(=O)O)C(N)=O [Abz-DVal-Ala-hLeu-Ser-Tyr(NO2)-Asp-NH2] (H-[2Abz][dV]A[hLeu]S[Tyr(3-NO2)]D-NH2)	NS
CCCC[C@H](NC(=O)[C@H](C)NC(=O)[C@@H](NC(=O)[C@H](CC(C)C)NC(=O)c1ccccc1N)C(C)C)C(=O)N[C@@H](CO)C(=O)N[C@@H](Cc1ccc(O)c([N+](=O)[O-])c1)C(=O)N[C@@H](CC(=O)O)C(N)=O [Abz-Leu-Val-Ala-Nle-Ser-Tyr(NO2)-Asp-NH2] (H-[2Abz]LVA[Nle]S[Tyr(3-NO2)]D-NH2)	NM
CC(C)CC[C@H](NC(=O)[C@@H](CCCCN)NC(=O)[C@@H](NC(=O)c1ccccc1N)C(C)C)C(=O)N[C@@H](CO)C(=O)N[C@@H](Cc1ccc(O)c([N+](=O)[O-])c1)C(=O)N[C@@H](CC(=O)O)C(N)=O [Abz-Val-DLys-hLeu-Ser-Tyr(NO2)-Asp-NH2] (H-[2Abz]V[dK][hLeu]S[Tyr(3-NO2)]D-NH2)	NS
CC(C)CC[C@H](NC(=O)[C@H](CC1CCCCC1)NC(=O)[C@@H](NC(=O)c1ccccc1N)C(C)C)C(=O)N[C@@H](CO)C(=O)N[C@@H](Cc1ccc(O)c([N+](=O)[O-])c1)C(=O)N[C@@H](CC(=O)O)C(N)=O [Abz-Val-Cha-hLeu-Ser-Tyr(NO2)-Asp-NH2] (H-[2Abz]V[Cha][hLeu]S[Tyr(3-NO2)]D-NH2)	NS
Abz-3.Pyr-Val-Ala-Nle-Ser-Tyr(NO2)-Asp-NH2	NM
CC(C)CC[C@H](NC(=O)[C@H](C)NC(=O)[C@@H]1Cc2ccccc2CN1C(=O)c1ccccc1N)C(=O)N[C@@H](CO)C(=O)N[C@@H](Cc1ccc(O)c([N+](=O)[O-])c1)C(=O)N[C@@H](CC(=O)O)C(N)=O [Abz-Tic-Ala-hLeu-Ser-Tyr(NO2)-Asp-NH2] (H-[2Abz][Tic]A[hLeu]S[Tyr(3-NO2)]D-NH2)	NS
CCCC[C@H](NC(=O)[C@H](C)NC(=O)[C@@H](NC(=O)[C@@H]1C[C@@H](O)CN1C(=O)c1ccccc1N)C(C)C)C(=O)N[C@@H](CO)C(=O)N[C@@H](Cc1ccc(O)c([N+](=O)[O-])c1)C(=O)N[C@@H](CC(=O)O)C(N)=O [Abz-Hyp-Val-Ala-Nle-Ser-Tyr(NO2)-Asp-NH2] (H-[2Abz][Hyp]VA[Nle]S[Tyr(3-NO2)]D-NH2)	NS
CCCC[C@H](NC(=O)[C@H](C)NC(=O)[C@@H](NC(=O)c1ccccc1N)C(C)C)C(=O)N[C@@H](CO)C(=O)N[C@@H](CCCCN)C(=O)N[C@@H](CC(=O)O)C(N)=O [Abz-Val-Ala-Nle-Ser-Lys-Asp-NH2] (H-[2Abz]VA[Nle]SKD-NH2)	NM
